The target of assay [1] is T1, c-Met (Homo sapiens, UniProt P08581). In words: Cell based ELISA assay for HGF stimulated c-Met phosphorylation in S114 cells. Also on record: expressed in transfected cells; host or cells: S114 (murine NIH 3T3 derived). As to conditions: read-out: c-Met Cell ELISA IC-50. As for the experimental part:
A cell based ELISA assay was developed to evaluate the ability of compounds to inhibit HGF stimulated c-Met phosphorylation in cells.
S114 cells were seeded to a 96 well tissue culture treated dish at a concentration of 5×10^4 per well. After a 16-20 hour incubation, culture medium was removed and replaced with serum free medium supplemented with 0.5% BSA. Test compound was then added and incubated with the cells for 60 minutes, followed by the addition of 1 μl HGF at […] for 15 minutes. […] Following another 1 hour incubation at room temperature the plates were washed three times with Delfia wash buffer (Perkin Elmer). After the final wash, […] of Delfia enhancer solution (Perkin Elmer) was added and allowed to incubate for 60 minutes. Plates were read on an LJL Analyst instrument (Molecular Devices; Sunnyvale, Calif.) with filter settings of 360 excitation, 620 emission, and 410 dichroic. IC50 values were calculated using Graphpad Prism software (Graphpad Software; San Diego, Calif.).
For orientation: In an ELISA, binding on a coated surface is turned into a signal by an enzyme label.
Target sequence in this assay (P08581 25-1390): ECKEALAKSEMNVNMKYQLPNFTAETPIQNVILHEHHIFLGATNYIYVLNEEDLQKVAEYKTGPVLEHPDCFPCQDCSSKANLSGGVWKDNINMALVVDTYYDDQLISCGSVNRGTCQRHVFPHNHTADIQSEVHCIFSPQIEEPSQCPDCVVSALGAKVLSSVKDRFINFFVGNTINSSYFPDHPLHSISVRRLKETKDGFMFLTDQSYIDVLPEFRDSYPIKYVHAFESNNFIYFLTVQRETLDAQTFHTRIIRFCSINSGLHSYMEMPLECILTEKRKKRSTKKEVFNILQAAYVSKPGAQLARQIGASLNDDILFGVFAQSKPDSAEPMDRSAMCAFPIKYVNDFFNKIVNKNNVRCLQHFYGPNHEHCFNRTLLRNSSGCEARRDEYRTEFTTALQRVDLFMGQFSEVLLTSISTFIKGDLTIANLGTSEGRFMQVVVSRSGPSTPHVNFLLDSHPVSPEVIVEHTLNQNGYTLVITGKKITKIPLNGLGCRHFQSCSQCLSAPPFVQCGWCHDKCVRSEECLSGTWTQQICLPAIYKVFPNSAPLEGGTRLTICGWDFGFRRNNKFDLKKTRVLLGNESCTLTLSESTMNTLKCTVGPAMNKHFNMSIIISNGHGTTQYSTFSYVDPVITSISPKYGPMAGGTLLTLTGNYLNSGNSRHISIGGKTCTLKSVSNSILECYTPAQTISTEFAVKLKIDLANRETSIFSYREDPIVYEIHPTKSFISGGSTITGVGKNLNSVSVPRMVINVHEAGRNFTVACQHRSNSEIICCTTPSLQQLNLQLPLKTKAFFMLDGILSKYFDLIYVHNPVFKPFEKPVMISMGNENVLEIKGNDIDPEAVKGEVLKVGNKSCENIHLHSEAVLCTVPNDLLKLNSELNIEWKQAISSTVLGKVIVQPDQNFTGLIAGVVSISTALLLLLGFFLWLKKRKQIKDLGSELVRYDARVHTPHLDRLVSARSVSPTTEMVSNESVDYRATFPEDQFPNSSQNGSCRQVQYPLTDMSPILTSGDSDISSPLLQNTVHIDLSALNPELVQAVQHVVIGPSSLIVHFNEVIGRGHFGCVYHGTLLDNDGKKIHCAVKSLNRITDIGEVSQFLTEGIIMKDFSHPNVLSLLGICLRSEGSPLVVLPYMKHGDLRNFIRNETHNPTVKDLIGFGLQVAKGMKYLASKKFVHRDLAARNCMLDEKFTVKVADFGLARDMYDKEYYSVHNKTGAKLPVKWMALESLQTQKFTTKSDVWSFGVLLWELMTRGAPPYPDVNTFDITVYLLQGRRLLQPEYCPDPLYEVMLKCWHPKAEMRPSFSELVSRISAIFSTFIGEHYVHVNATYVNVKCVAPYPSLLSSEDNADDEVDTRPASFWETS

Assay [2] addresses T1, c-Met. Briefly: Delfia autophosphorylation kinase assay on the c-Met. It counts as biochemical. Set-up: The purified His6 tagged cytoplasmic domain of c-Met was diluted to a concentration of 500 ng/ml; host or cells: Sf9 insect cells (baculovirus, pFastBacHTa). Conditions: His6 tagged cytoplasmic domain of c-Met, 1 μM ATP; read-out: cMet Delfia autophos IC-50. As for the experimental part: A DELFIA time resolved fluorescence assay was developed for screening of compounds that decreases the autophosphorylation thus the kinase activity of c-Met. The DELFIA assay is non-radioactive. The autophosphorylation of the c-Met is measured by an anti-phosphotyrosine antibody coupled to an Europium tag.
A major advantage of this format is that it allowed for the development of an autophosphorylation assay using Ni-chelate plates which bind the hexa-his tag on the recombinant Met kinase. The autophosphorylation assay allows one to use a known substrate, Met kinase itself, for the phosphorylation.
The assay procedure for screening is as follows. The purified His6 tagged cytoplasmic domain of c-Met was diluted to a concentration of 500 ng/ml in enzyme dilution buffer (50 mM Tris-HCl, pH8.0, 0.1% BSA) and dispensed to assay plates at a volume of 50 μl per well. Black opaque HisGrab Nickel coated 96 well plates (Pierce, Rockford, Ill.) were selected for use. Next, 2.5 μl of compound in 40% DMSO was added to test wells, 2.5 μl of 40% DMSO only was added to the negative control wells. The autophosphorylation reaction was initiated upon the addition of 50 μl of reaction buffer, 50 mM Tris-HCl, pH 8.0, 10 mM MgCl2, 0.1 mM Na3VO4, 1 mM DTT, 1 μM ATP. Plates were incubated at room temperature for 1 hour followed by 2 washes with 200 μl/well of PBS. Europium conjugated anti-phosphotyrosine antibody, Eu-PY20 from Perkin Elmer was diluted to 50 ng/ml in Delfia AB buffer (Perkin Elmer, Boston, Mass.), added to the 96 well assay plates at a volume of 100 μl/well, and incubated at room temperature for 2 hours. Assay plates were then washed 4 times each with 200 μl/well of Delfia wash buffer (Perkin Elmer). After the final wash 150 μl of Delfia Enhancement solution (Perkin Elmer) was added to each well of the assay plate and incubated at room temperature for 1 hour. Plates were read on an LJL Analyst instrument (Molecular Devices; Sunnyvale, Calif.) with filter settings of 360 excitation, 620 emission, and 410 dichroic. IC50 values were calculated using Graphpad Prism software (Graphpad Software; San Diego, Calif.).
Target sequence in this assay (P08581 956-1390 limits assumed): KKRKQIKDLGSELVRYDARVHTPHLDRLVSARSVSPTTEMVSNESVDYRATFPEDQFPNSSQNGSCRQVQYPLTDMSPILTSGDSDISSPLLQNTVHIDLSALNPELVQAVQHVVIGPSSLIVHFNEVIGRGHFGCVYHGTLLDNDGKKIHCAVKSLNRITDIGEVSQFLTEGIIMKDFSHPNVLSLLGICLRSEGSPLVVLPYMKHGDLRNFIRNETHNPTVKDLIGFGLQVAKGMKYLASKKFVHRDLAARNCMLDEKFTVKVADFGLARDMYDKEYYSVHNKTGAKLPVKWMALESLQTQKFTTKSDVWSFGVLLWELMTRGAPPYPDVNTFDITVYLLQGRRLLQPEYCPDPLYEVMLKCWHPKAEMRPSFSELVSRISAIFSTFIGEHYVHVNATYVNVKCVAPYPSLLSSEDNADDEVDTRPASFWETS

Molecules are shown by their SMILES.

In the case of `Oc1ccc(Cc2nnc3ccc(-c4cn[nH]c4)nn23)cc1` [Example 3, 4-[6-(1H-Pyrazol-4-yl)-[1,2,4]triazolo[4,3-b]pyridazin-3-ylmethyl]-phenol], the IC50 on c-Met [1] turned out to be 1030 nM; at c-Met [2], 16 nM.
Consider `Oc1ccc(Cc2nnc3ccc(-c4ccn[nH]4)nn23)cc1` [Example 5, 4-[6-(2H-Pyrazol-3-yl)-[1,2,4]triazolo[4,3-b]pyridazin-3-ylmethyl]-phenol], for which the IC50 is 1930 nM on c-Met [1] and 15 nM at c-Met [2].
On to `c1cnc2ccc(Cc3nnc4ccc(-c5ccncc5)nn34)cc2c1` [Example 6, 6-(6-Pyridin-4-yl-[1,2,4]triazolo[4,3-b]pyridazin-3-ylmethyl)-quinoline], for which the IC50 was 112 nM on c-Met [1] and 8 nM on c-Met [2].
As to `c1cc(-c2ccc3nnc(Cc4ccc5c(c4)CCO5)n3n2)ccn1` [Example 7, 3-(2,3-Dihydro-benzofuran-5-ylmethyl)-6-pyridin-4-yl-[1,2,4]triazolo[4,3-b]pyridazine], the IC50 on c-Met [1] amounted to 2150 nM; at c-Met [2], 111 nM.
The corresponding values for `CCCn1cc(-c2ccc3nnc(Cc4ccc5ncccc5c4)n3n2)cn1` [Example 9, 6-[6-(1-Propyl-1H-pyrazol-4-yl)-[1,2,4]triazolo[4,3-b]pyridazin-3-ylmethyl]-quinoline] are 48 nM and 1.6 nM.
For the compound `c1cncc(-c2ccc3nnc(Cc4ccc5ncccc5c4)n3n2)c1` [Example 11, 6-(6-Pyridin-3-yl-[1,2,4]triazolo[4,3-b]pyridazin-3-ylmethyl)-quinoline], the IC50 at c-Met [1] worked out at 86 nM; at c-Met [2], 6 nM.
`Nc1nc2ccc(Cc3nnc4ccc(-c5cccnc5)nn34)cc2s1` [Example 13, 6-(6-Pyridin-3-yl-[1,2,4]triazolo[4,3-b]pyridazin-3-ylmethyl)-benzothiazol-2-ylamine]: the IC50 amounted to 215 nM on c-Met [1] and 15 nM at c-Met [2].
For `CS(=O)(=O)n1cc(-c2ccc3nnc(Cc4ccc5ncccc5c4)n3n2)cn1` [Example 15, 6-[6-(1-Methanesulfonyl-1H-pyrazol-4-yl)-[1,2,4]triazolo[4,3-b]pyridazin-3-ylmethyl]-quinoline], the values for the IC50 on c-Met [1] and at c-Met [2] were 88 nM and 2 nM, respectively.
On to `COCCn1cc(-c2ccc3nnc(Cc4ccc5ncccc5c4)n3n2)cn1` [Example 16, 6-{6-[1-(2-Methoxy-ethyl)-1H-pyrazol-4-yl]-[1,2,4]triazolo[4,3-b]pyridazin-3-ylmethyl}-quinoline], for which the IC50 at c-Met [1] was found to be 295 nM; on c-Met [2], 9 nM.
The corresponding values for `Oc1ccc(Cc2nnc3ccc(-c4nccs4)nn23)cc1` [Example 18, 4-(6-Thiazol-2-yl-[1,2,4]triazolo[4,3-b]pyridazin-3-ylmethyl)-phenol] are 86 nM and 10 nM.
For `CCCc1ncc(-c2ccc3nnc(Cc4ccc5ncccc5c4)n3n2)s1` [Example 20, 6-[6-(2-Propyl-thiazol-5-yl)-[1,2,4]triazolo[4,3-b]pyridazin-3-ylmethyl]-quinoline], in that order: 7 nM and 1 nM.
Take `c1csc(-c2ccc3nnc(Cc4ccc5c(c4)CCO5)n3n2)c1` [Example 22, 3-(2,3-Dihydro-benzofuran-5-ylmethyl)-6-thiophen-2-yl-[1,2,4]triazolo[4,3-b]pyridazine]: the IC50 was 9 nM at c-Met [1] and 15 nM on c-Met [2].
For `Cc1ccsc1-c1ccc2nnc(Cc3ccc4c(c3)CCO4)n2n1` [Example 23, 3-(2,3-Dihydro-benzofuran-5-ylmethyl)-6-(3-methyl-thiophen-2-yl)-[1,2,4]triazolo[4,3-b]pyridazine], in that order: 113 nM and 41 nM.
For the compound `COc1ccc(Cc2nnc3ccc(-c4cccs4)nn23)cc1` [Example 25, 3-(4-Methoxy-benzyl)-6-thiophen-2-yl-[1,2,4]triazolo[4,3-b]pyridazine], the IC50 at c-Met [1] worked out at 483 nM; on c-Met [2], 41 nM.
Turning to `COc1ccc(Cc2nnc3ccc(-c4cccs4)nn23)cn1` [Example 31, 3-(6-Methoxy-pyridin-3-ylmethyl)-6-thiophen-2-yl-[1,2,4]triazolo[4,3-b]pyridazine], the IC50 at c-Met [1] turned out to be 2400 nM; on c-Met [2] it was 77 nM.
Turning to `c1csc(-c2ccc3nnc(Cc4ccncc4)n3n2)c1` [Example 33, 3-Pyridin-4-ylmethyl-6-thiophen-2-yl-[1,2,4]triazolo[4,3-b]pyridazine], the IC50 on c-Met [1] is 9900 nM; at c-Met [2] it was 96 nM.
Regarding `c1csc(-c2ccc3nnc(Cc4ccc5occc5c4)n3n2)c1` [Example 35, 3-Benzofuran-5-ylmethyl-6-thiophen-2-yl-[1,2,4]triazolo[4,3-b]pyridazine], the IC50 is 75 nM at c-Met [1] and 9 nM at c-Met [2].
For the compound `c1csc(-c2ccc3nnc(Cc4ccc5c(c4)OCO5)n3n2)c1` [Example 37, 3-Benzo[1,3]dioxol-5-ylmethyl-6-thiophen-2-yl-[1,2,4]triazolo[4,3-b]pyridazine], the IC50 is 346 nM at c-Met [1] and 16 nM at c-Met [2].
Consider `Nc1nc2ccc(Cc3nnc4ccc(-c5cccs5)nn34)cc2s1` [Example 38, 6-(6-Thiophen-2-yl-[1,2,4]triazolo[4,3-b]pyridazin-3-ylmethyl)-benzothiazol-2-ylamine], for which the IC50 at c-Met [1] turned out to be 2 nM; at c-Met [2], 0.45 nM.
In the case of `c1csc(-c2ccc3nnc(Cc4ccc5ncccc5c4)n3n2)c1` [Example 39, 6-(6-Thiophen-2-yl-[1,2,4]triazolo[4,3-b]pyridazin-3-ylmethyl)-quinoline], the IC50 at c-Met [1] was determined as 1 nM; at c-Met [2], 2 nM.
As to `c1cc2c(cc1Cc1nnc3ccc(-c4ccc(CN5CCOCC5)s4)nn13)CCO2` [Example 42, 3-(2,3-Dihydro-benzofuran-5-ylmethyl)-6-(5-morpholin-4-ylmethyl-thiophen-2-yl)-[1,2,4]triazolo[4,3-b]pyridazine], the IC50 was 406 nM at c-Met [1] and 13 nM on c-Met [2].
On to `c1cnc2ccc(Cc3nnc4ccc(-n5ccnc5)nn34)cc2c1` [Example 43, 6-(6-Imidazol-1-yl-[1,2,4]triazolo[4,3-b]pyridazin-3-ylmethyl)-quinoline], for which the IC50 on c-Met [1] was 140 nM; on c-Met [2], 11 nM.
For the compound `Brc1cn(-c2ccc3nnc(Cc4ccc5ncccc5c4)n3n2)cn1` [Example 44, 6-[6-(4-Bromo-imidazol-1-yl)-[1,2,4]triazolo[4,3-b]pyridazin-3-ylmethyl]-quinoline], the IC50 at c-Met [1] is 143 nM; on c-Met [2], 2 nM.
Regarding `CN1CCN(C(=O)c2ccc(-c3ccc4nnc(Cc5ccc6ncccc6c5)n4n3)s2)CC1` [Example 47, (4-Methyl-piperazin-1-yl)-[5-(3-quinolin-6-ylmethyl-[1,2,4]triazolo[4,3-b]pyridazin-6-yl)-thiophen-yl]-methanone], the results for the IC50 at c-Met [1] and on c-Met [2] were 1 nM and 0.4 nM, respectively.
For the compound `O=C(c1ccc(-c2ccc3nnc(Cc4ccc5ncccc5c4)n3n2)s1)N1CCS(=O)(=O)CC1` [Example 54, (1,1-Dioxo-1λ6thiomorpholin-4-yl)-[5-(3-quinolin-6-ylmethyl-[1,2,4]triazolo[4,3-b]pyridazin-6-yl)-thiophen-2-yl]-methanone], at c-Met [1], the IC50 worked out at 6 nM.
For `c1cnc2ccc(Cc3nnc4ccc(-c5ccc6[nH]ccc6c5)nn34)cc2c1` [Example 84, 6-[6-(1H-Indol-5-yl)-[1,2,4]triazolo[4,3-b]pyridazin-3-ylmethyl]-quinoline], at c-Met [1], the IC50 was determined as 0.9 nM.

The values above are taken from patent publication US8173654B2, “Triazolopyridazine compounds” (Janssen Pharmaceutica N.V., priority 2005, dated 2012).
